From PubChem BioAssay AID1259408 (Genetic Toxicology Data Bank (GENE-TOX), 2018)
The source made the active and inactive calls. The rule behind the calls is not given here.

Test system: GENE-TOX genotoxicity assays, various organisms and cells
Test: GENE-TOX mutagenicity studies
Conditions: for call: Assay Type: In vivo carcinogenicity studies
[1] = Species/Cell Type: Escherichia coli WP2, Assay Type: Tryptophan reverse gene mutation, Assay Code: WP2+, Evaluation Type: Evaluation A (Pre-1980)
[2] = Species/Cell Type: Human lymphocytes, Assay Type: Sister-chromatid exchange (SCE) in vivo, Assay Code: SCY+, Evaluation Type: Evaluation B (Post-1980)
[3] = Species/Cell Type: Mammalian polychromatic erythrocytes, Assay Type: Micronucleus test, chromosome aberrations, Assay Code: MNT+, Evaluation Type: Evaluation A (Pre-1980)
[4] = Species/Cell Type: Nonhuman, Assay Code: CCG-L, Evaluation Type: Evaluation A (Pre-1980)
[5] = Species/Cell Type: Salmonella typhimurium (one or more of the five standard strains: TA98, TA100, TA1535, TA1537, and TA1538), Assay Type: Histidine reverse gene mutation, Ames assay, Assay Code: SALT, Evaluation Type: Evaluation A (Pre-1980)
[6] = Species/Cell Type: Nonhuman, Assay Code: CCG+, Evaluation Type: Evaluation A (Pre-1980)
[7] = Species/Cell Type: Nonhuman, Assay Type: Sister-chromatid exchange (SCE) in vitro, Assay Code: SC2+D, Dose Response: With dose response, Evaluation Type: Evaluation B (Post-1980)
[8] = Species/Cell Type: Escherichia coli WP2 UVRA, Assay Type: Tryptophan reverse gene mutation, Assay Code: WPU+, Evaluation Type: Evaluation A (Pre-1980)
[9] = Species/Cell Type: Bacillus subtilis (H17 vs M45), Assay Type: Rec-assay, spot test, DNA effects (bacterial DNA repair), Assay Code: REWT, Evaluation Type: Evaluation A (Pre-1980)
[10] = Species/Cell Type: Salmonella typhimurium (one or more of the five standard strains: TA98, TA100, TA1535, TA1537, and TA1538), Assay Type: Histidine reverse gene mutation, Ames assay, Assay Code: SAL-, Evaluation Type: Evaluation A (Pre-1980)
[11] = Species/Cell Type: Salmonella typhimurium (one or more of the five standard strains: TA98, TA100, TA1535, TA1537, and TA1538), Assay Type: Histidine reverse gene mutation, Ames assay, Assay Code: SAL+, Evaluation Type: Evaluation A (Pre-1980)
[12] = Species/Cell Type: Mammalian polychromatic erythrocytes, Assay Type: Micronucleus test, chromosome aberrations, Assay Code: MNTT, Evaluation Type: Evaluation B (Post-1980)

With CN(Cc1cnc2nc(N)nc(N)c2n1)c1ccc(C(=O)N[C@@H](CCC(=O)O)C(=O)O)cc1 the mutagenic call (Species/Cell Type: Arabidopsis species, Assay Type: Gene mutation, Assay Code: ARM-, Evaluation Type: Evaluation A (Pre-1980)) was “inactive; negative”, the mutagenic call [1] was “active; positive” and the mutagenic call (Species/Cell Type: Escherichia coli polA (W3119 vs P3478), Assay Type: Rec-assay, DNA effects (bacterial DNA repair), Assay Code: RE1T, Evaluation Type: Evaluation A (Pre-1980)) was “no conclusion”. For the same compound, the mutagenic call (Species/Cell Type: Human diploid fibroblasts, Assay Type: Unscheduled DNA synthesis (UDS) in vitro, DNA effects, Assay Code: UDH-, Evaluation Type: Evaluation A (Pre-1980)) was “inactive; negative”, the mutagenic call [2] was “active; positive” and the mutagenic call (Species/Cell Type: Human, Sex: Male, Assay Type: Sperm morphology, Assay Code: SPH+, Evaluation Type: Evaluation A (Pre-1980)) was “active; positive”. The mutagenic call (Species/Cell Type: Mammalian oocytes or early embryo, Assay Type: Chromosome aberrations in vivo, Assay Code: CYO+D, Dose Response: With dose response, Evaluation Type: Evaluation A (Pre-1980)) was “active; positive”, the mutagenic call [3] was “active; positive” and the mutagenic call (Species/Cell Type: Mouse (C3H/10T1/2) cells, Assay Type: Cell transformation, Assay Code: CTH+D, Dose Response: With dose response, Evaluation Type: Evaluation A (Pre-1980)) was “active; positive”. The mutagenic call (Species/Cell Type: Mouse lymphoma (L5178Y) cells, Assay Type: Forward gene mutation at the thymidine kinase (TK) locus, chromosome aberrations, Assay Code: L51+, Evaluation Type: Evaluation A (Pre-1980)) was “active; positive”, the mutagenic call (Species/Cell Type: Neurospora crassa, Assay Type: Aneuploidy, chromosome aberrations, Assay Code: NEN+, Evaluation Type: Evaluation A (Pre-1980)) was “active; positive” and the mutagenic call (Species/Cell Type: Nonhuman, Assay Type: Chromosome aberrations in vitro, Assay Code: CY&+D, Dose Response: With dose response, Evaluation Type: Evaluation A (Pre-1980)) was “active; positive”. The call [4] was “inactive; negative”, the mutagenic call (Species/Cell Type: Nonhuman, Assay Type: Sister-chromatid exchange (SCE) in vitro, Assay Code: SC2+, Evaluation Type: Evaluation A (Pre-1980)) was “active; positive” and the mutagenic call (Species/Cell Type: Rodents, Sex: Male, Assay Type: Dominant lethal test, Assay Code: DLTT, Evaluation Type: Evaluation A (Pre-1980)) was “no conclusion”. For the same compound, the mutagenic call (Species/Cell Type: Saccharomyces cerevisiae, Assay Type: Mitotic recombination or gene conversion, Assay Code: YEH+, Evaluation Type: Evaluation A (Pre-1980)) was “active; positive”, the mutagenic call [5] was “no conclusion” and the mutagenic call (Species/Cell Type: Serratia marcesens, Assay Type: Reverse gene mutation, host-mediated assay, Assay Code: HMC+, Evaluation Type: Evaluation A (Pre-1980)) was “active; positive”. The mutagenic call (Species/Cell Type: Syrian hamster embryo (SHE) cells, Assay Type: Cell transformation, clonal assay, Assay Code: CTC-, Evaluation Type: Evaluation A (Pre-1980)) was “inactive; negative”.

In the case of C#C[C@]1(OC(C)=O)CC[C@H]2[C@@H]3CCC4=CC(=O)CC[C@@H]4[C@H]3CC[C@@]21C (tested in a mixture with another compound), the mutagenic call (Species/Cell Type: Rodents, Sex: Male, Assay Type: Dominant lethal test, Assay Code: DLT-, Evaluation Type: Evaluation A (Pre-1980)) is reported as “inactive; negative”.

For c1ccccc1, the mutagenic call (Species/Cell Type: Human lymphocytes or leukocytes, Assay Type: Chromosome aberrations in vitro, Assay Code: CY7+, Evaluation Type: Evaluation A (Pre-1980)) was “active; positive”, the mutagenic call (Species/Cell Type: Human lymphocytes or leukocytes, Assay Type: Chromosome aberrations in vivo, Assay Code: CY8+, Evaluation Type: Evaluation A (Pre-1980)) was “active; positive” and the mutagenic call (Species/Cell Type: Human lymphocytes, Assay Type: Sister-chromatid exchange (SCE) in vitro, Assay Code: SCL+*, Activation: With metabolic activation, Evaluation Type: Evaluation B (Post-1980)) was “active; positive”. For the same compound, the mutagenic call (Species/Cell Type: Human lymphocytes, Assay Type: Sister-chromatid exchange (SCE) in vitro, Assay Code: SCL-, Evaluation Type: Evaluation A (Pre-1980)) was “inactive; negative”, the mutagenic call [2] was “active; positive” and the mutagenic call (Species/Cell Type: Human, Assay Type: Sister-chromatid exchange (SCE) in vitro, Assay Code: SC1+*, Activation: With metabolic activation, Evaluation Type: Evaluation B (Post-1980)) was “active; positive”. The mutagenic call (Species/Cell Type: Human, Assay Type: Sister-chromatid exchange (SCE) in vitro, Assay Code: SC1-, Evaluation Type: Evaluation A (Pre-1980)) was “inactive; negative”, the mutagenic call [3] was “active; positive” and the mutagenic call (Species/Cell Type: Mouse, Sex: Male, Assay Type: Sperm morphology, Assay Code: SPI+, Evaluation Type: Evaluation A (Pre-1980)) was “active; positive”. The call [6] was “active; positive”, the mutagenic call [7] was “active; positive” and the mutagenic call (Species/Cell Type: Nonhuman, Assay Type: Sister-chromatid exchange (SCE) in vivo, Assay Code: SC3+D, Dose Response: With dose response, Evaluation Type: Evaluation B (Post-1980)) was “active; positive”. For the same compound, the mutagenic call (Species/Cell Type: Syrian hamster embryo (SA7/SHE) cells, Assay Type: Cell transformation, viral enhanced, Assay Code: CT7-, Evaluation Type: Evaluation A (Pre-1980)) was “inactive; negative” and the mutagenic call (Species/Cell Type: Tradescantia species, Assay Type: Gene mutation, Assay Code: TRM+D, Dose Response: With dose response, Evaluation Type: Evaluation A (Pre-1980)) was “active; positive”.

In the case of CC(=O)Nc1ccc(-c2ccc(NC(C)=O)cc2)cc1, the call [6] is reported as “active; positive”.

With O=[N+]([O-])C1c2ccccc2-c2ccccc21 the mutagenic call [8] was “active; positive”.

With [C-]#[N+]C(=C\c1ccc(O)cc1)/C(=C/c1ccc(O)cc1)[N+]#[C-] the mutagenic call [9] was “no conclusion”.

With OC(O)C(F)(F)F the mutagenic call [5] was “no conclusion”.

For COc1ccc(/C=N/NC(=O)COc2ccc(Br)cc2CN(C)C)cc1, the mutagenic call (Species/Cell Type: Saccharomyces cerevisiae, Assay Type: Reverse gene mutation, Assay Code: YERT, Evaluation Type: Evaluation A (Pre-1980)) was “no conclusion”.

CCN(Cc1cccc(S(=O)(=O)O)c1)c1ccc(C(=C2C=CC(=[N+](CC)Cc3cccc(S(=O)(=O)[O-])c3)C=C2)c2ccc(S(=O)(=O)O)cc2)cc1 was tested, and the mutagenic call [9] was “no conclusion”, the mutagenic call (Species/Cell Type: Bacillus subtilis (H17 vs M45T), Assay Type: Rec-assay, spot test, DNA effects (bacterial DNA repair), Assay Code: REXT, Evaluation Type: Evaluation A (Pre-1980)) was “no conclusion” and the mutagenic call [10] was “inactive; negative”.

With Cc1c([N+](=O)[O-])cc[n+]([O-])c1C the mutagenic call (Species/Cell Type: Escherichia coli polA (W3119 vs P3478), Assay Type: Rec-assay, DNA effects (bacterial DNA repair), Assay Code: RE1+, Evaluation Type: Evaluation A (Pre-1980)) was “active; positive”.

With CCOP(=O)(NC(C)C)Oc1ccc(SC)c(C)c1 (stereo unspecified) the mutagenic call (Species/Cell Type: Nonhuman, Assay Type: Sister-chromatid exchange (SCE) in vitro, Assay Code: SC2-, Evaluation Type: Evaluation B (Post-1980)) was “inactive; negative”.

In the case of O=C1O[C@H]([C@H](O)CO)C(O)=C1O, the mutagenic call (Species/Cell Type: Human, Assay Type: Sister-chromatid exchange (SCE) in vitro, Assay Code: SC1T, Evaluation Type: Evaluation B (Post-1980)) is reported as “no conclusion”.

O=[N+]([O-])c1ccc(-c2csc(Cl)n2)o1 was tested, and the mutagenic call [1] was “active; positive” and the mutagenic call [8] was “active; positive”.

For [NH4+].[O-2].[O-2].[O-2].[O-2].[O-2].[Sb+3].[W], the mutagenic call (Species/Cell Type: Syrian hamster embryo (SA7/SHE) cells, Assay Type: Cell transformation, viral enhanced, Assay Code: CT7+, Evaluation Type: Evaluation A (Pre-1980)) was “active; positive”.

For CC#CC(OC(=O)NC1CCCCC1)(c1ccccc1)c1ccccc1, the mutagenic call [11] was “active; positive”.

In the case of CN(C)Nc1nc(-c2ccc([N+](=O)[O-])o2)cs1, the mutagenic call [1] is reported as “active; positive”, the mutagenic call (Species/Cell Type: Escherichia coli WP2 UVRA, Assay Type: Tryptophan reverse gene mutation, Assay Code: WPU-, Evaluation Type: Evaluation A (Pre-1980)) is reported as “inactive; negative” and the mutagenic call [11] is reported as “active; positive”.

With CCCCOCCOCCOCc1cc2c(cc1CCC)OCO2 the call [4] was “inactive; negative”.

For O=C(NO)c1ccc2ccccc2c1, the mutagenic call [7] was “active; positive” and the mutagenic call [11] was “active; positive”.

With CCNP(=S)(OC)O/C(C)=C/C(=O)OC(C)C (stereo unspecified) (tested in a mixture with another compound) the mutagenic call [12] was “no conclusion”.

With CCN(CC)c1nc(C)cc(OP(=S)(OC)OC)n1 the mutagenic call [12] was “no conclusion”.

For CCC1(c2ccccc2)CCC(=O)NC1=O (stereo unspecified), the mutagenic call (Species/Cell Type: Drosophila melanogaster, Assay Type: Aneuploidy, sex chromosome gain, chromosome aberrations, Assay Code: DAG-M, Evaluation Type: Evaluation A (Pre-1980)) was “inactive; negative” and the mutagenic call (Species/Cell Type: Drosophila melanogaster, Assay Type: Aneuploidy, whole sex chromosome loss, chromosome aberrations, Assay Code: DAC-M, Evaluation Type: Evaluation A (Pre-1980)) was “inactive; negative”.

Cc1ccc2ccccc2n1 was tested, and the mutagenic call (Species/Cell Type: Salmonella typhimurium (one or more of the five standard strains: TA98, TA100, TA1535, TA1537, and TA1538), Assay Type: Histidine reverse gene mutation, Ames assay, Assay Code: SAL+*, Activation: With metabolic activation, Evaluation Type: Evaluation A (Pre-1980)) was “active; positive”.

With Cc1c(N)c(=O)n(-c2ccccc2)n1C the mutagenic call [10] was “inactive; negative”.
